Source: US20250152576A1, “INJECTABLE FORMULATION COMPRISING ISOXAZOLINE DERIVATIVE AND METHOD FOR PREPARING SAME” (LG CHEM, LTD., priority 2022, published 2025)

Key:
[1] = Change in API purity during preparation of freeze-drying formulation, UPLC; type: physicochemical; settings: API powder before dissolving in the solvent composition
Method: A final API freeze-drying formulation was prepared as described in Table 16 below.
In order to confirm the change in purity of the API during the preparation of the final API freeze-drying formulation, the purity of the API powder before dissolving in the solvent composition, and the API purity during the preparation of the API mixture solution and after freeze-drying were measured using UPLC.

[2] = Solubility of compound of Formula 1 in water and solvents of various compositions; type: physicochemical
From the text: Further, it was confirmed that the compound of Formula 1 has the property of reducing the pH of a solution while being dissolved in a solvent.

CC(C)[C@@]1(C(=O)N[C@H]2CC(=O)O[C@]2(O)CF)CC(c2nccc3ccccc23)=NO1 [Compound of Formula 1, (R)-N-((2S,3S)-2-(fluoromethyl)-2-hydroxy-5-oxotetrahydrofuran-3-yl)-5-isopropyl-3-(isoquinolin-1-yl)-4,5-dihydroisoxazol-5-carboxamide]
Purity (%) [1]: 98.6%
solubility in acidic solvents ([2]; acidic solvents of pH 4 or less containing phosphate buffer, solubilizing agent and pH adjusting agent): hardly soluble
solubility in water ([2]; water): poorly soluble in water
solubility in weak acidic and basic solvents ([2]; weak acidic solvents of pH 6 or more and basic solvents of pH 7.5 or more): dissolved well
